Patent US6602525B1 (The Procter & Gamble Company, priority 2001, dated 2003)
Several values for one entry are separate records, joined by “and”; a condition that tells them apart may be missing. Equal entries are not always repeated.

Columns and labels:
Format in all cases: cell-based
Enterococcus faecalis [1] = experiment: Checkerboard synergy test, nitrofurantoin and uva ursi; details: E. faecalis isolates 21-30
Excerpt: (§1) The checkerboard (or chessboard) method is used to assess the antimicrobial combination in vitro against the following selection of Gram-positive and Gram-negative pathogens including: Escherichia coli, Klebsiella pneumoniae, Proteus mirabilis, Serratia marcescens, Staphylococcus saprophyticus, Pseudomonas aeruginosa, and Enterococcus faecalis. […] Furthermore, the combination of nitrofurantoin and uva ursi is synergistic against four of the seven species tested, in particular E. coli, S. marcescens, P. mirabilis, and P. aeruginosa. […] [table] […] Following testing, the FIC index was calculated for each isolate panel to determine whether synergy, additivity, or antagonism occurred. […] For additivity, the FIC index is 1. For antagonism, the FIC index is 2.

Proteus mirabilis = experiment: as above; details: nitrofurantoin alone, P. mirabilis isolates 41-50
Excerpt: as §1

Pseudomonas aeruginosa [2] = experiment: as above; details: P. aeruginosa isolates 1-10
Excerpt: as §1

[3] = test system: Staphylococcus saprophyticus; experiment: as above; details: nitrofurantoin alone, S. saprophyticus isolates 61-70
Excerpt: as §1

Enterococcus faecalis [4] = experiment: Pre-test MIC, NCCLS microbroth dilution; details: nitrofurantoin alone, E. faecalis, one value per isolate (Isolate ID 21-30)
Protocol: (§2) Methods for Dilution Antimicrobial Susceptibility Tests for Bacteria That Grow Aerobically; Approved Standard (Fifth Edition) (2000). These standards are as follows: [table] Nitrofurantoin was added to cation-adjusted Mueller-Hinton Broth (hereinafter “CAMHB”) and dissolved. […] The uva ursi extract was serially diluted in water. For each test concentration, the final dilution was performed in CAMHB providing dilutions of 1:20 to 1:2048.

Pseudomonas aeruginosa [5] = experiment: Pre-test MIC, NCCLS microbroth dilution
Protocol: as §2

Serratia marcescens = experiment: Pre-test MIC, NCCLS microbroth dilution; details: nitrofurantoin alone, S. marcescens, one value per isolate (Isolate ID 11-20)
Protocol: as §2

[6] = test system: Staphylococcus saprophyticus; experiment: Pre-test MIC, NCCLS microbroth dilution; details: nitrofurantoin alone, S. saprophyticus, one value per isolate (Isolate ID 61-70)
Protocol: as §2

[7] = checkerboard, nitrofurantoin alone

MIC (Enterococcus faecalis [1]; Enterococcus faecalis, read-out: MIC Nitrofurantoin, checkerboard, nitrofurantoin alone): 16 µg/mL | MIC Nitrofurantoin (Enterococcus faecalis [1]; [7]): 8 µg/mL | MIC Nitrofurantoin (Proteus mirabilis): 128 µg/mL | MIC (Pseudomonas aeruginosa [2]; Pseudomonas aeruginosa, read-out: MIC Nitrofurantoin, checkerboard, nitrofurantoin alone): > 512 µg/mL | MIC Nitrofurantoin (Pseudomonas aeruginosa [2]; [7]): >512 µg/mL and 512 µg/mL | MIC Nitrofurantoin [3]: 8 µg/mL | MIC Nitrofurantoin (Enterococcus faecalis [4]): 8 to 64 µg/mL | MIC (Pseudomonas aeruginosa [5]; Pseudomonas aeruginosa, read-out: Nitrofurantoin MIC): > 512 µg/mL | Nitrofurantoin MIC (Pseudomonas aeruginosa [5]; pre-test, nitrofurantoin alone, P. aeruginosa, one value per isolate (Isolate ID 1-10)): >512 µg/mL | MIC Nitrofurantoin (Serratia marcescens): 64 to 512 µg/mL | MIC Nitrofurantoin [6]: 8 to 32 µg/mL
Structure (SMILES): O=C1CN(/N=C/c2ccc([N+](=O)[O-])o2)C(=O)N1 [Nitrofurantoin, N-(5-nitro-2-furfurylidene)-1-aminohydantoin]
